Reference: a melting point compilation (Tetko et al.; mined from patent text by program, amines drawn as free bases though some values may be those of a salt)

Compared with `CC(C)(C)c1cc(CN)n(NCC(F)(F)F)n1`, `CCOC(=O)COc1cc(F)c(-c2nn(C)c(C(F)(F)F)c2Cl)cc1[N+](=O)[O-]` is higher in melting point: 80 to 83 °C for the first, 95 to 96 °C for the second.

Compared with `CN(c1cccc2cc(C3=NCC(CN4CCOCC4)S3)[nH]c12)S(=O)(=O)c1cccnc1` (centres undefined), `CC(C)(O)c1ccc(-c2ccc(C(CC3CCOCC3)c3ccc(S(=O)(=O)C4CC4)cc3)[nH]2)nc1` (centres undefined) is lower in melting point: 234 to 236 °C for the first, 112 to 114 °C for the second.

First: c1ccc(Nc2ccncc2Oc2ccccc2)cc1
Second: Cc1cc(OCc2ccccc2)ccc1OCc1ccccc1
The melting point of the first is higher: 111 to 113 °C for the first, 42 to 43 °C for the second.

First: CCNCC1CCN(c2c(F)cc3c(=O)c(C(=O)O)cn(C4CCCCC4)c3c2F)C1 (centres undefined)
Second: Cc1nc2n(c(=O)c1CCN1CCC(C(=O)c3ccc(F)cc3)CC1)CCS2
The melting point of the first is higher: 194 to 196 °C for the first, 166 °C for the second.

Compared with `C=Cc1ccc2c(c1)C[C@H](C(=O)N1CCC[C@H](C)C1)N2c1cccnn1`, `O=C(c1ccc(F)c(F)c1)N1CCC[C@H](c2nc(-c3ccncc3)no2)C1` is lower in melting point: 206 to 209 °C for the first, 102 to 106 °C for the second.

First: CN1CCC(c2nn(-c3ccc(C(F)(F)F)cc3)c3ccc(F)cc23)CC1
Second: Fc1ccc(CN2CCC(Nc3ccc(C(F)(F)F)nn3)CC2)cc1
The melting point of the first is lower: 126 to 128 °C for the first, 163 to 165 °C for the second.

Compared with `CCOC(=O)C(=O)Nc1sc(C(=O)OCC)c(C)c1[N+](=O)[O-]`, `CCCc1c2nc(C(=O)OCC)cc(C)c2cc2c(=O)cc(C(=O)OCC)oc12` is higher in melting point: 118 to 120 °C for the first, 165 to 168 °C for the second.

First: O=c1[nH]c2nc(C(F)(F)F)cc(C(F)(F)F)c2cc1-c1ccncc1
Second: Cc1cc(-c2cnn3c(C(F)(F)F)cc(-c4ccc(C(F)(F)F)c(C)c4)nc23)ccn1
The melting point of the first is higher: 250 to 270 °C for the first, 237 °C for the second.

`CN(c1c(Cl)ccc2cc(C(N)=S)[nH]c12)S(=O)(=O)c1cccs1` and `Cc1ccc(S(=O)(=O)N(CCO)c2cc(C)cc([N+](=O)[O-])c2N)cc1` cannot be ordered by melting point: 200 to 201 °C for the first, 201 °C for the second.

First: C#CCN(Cc1cc2c(=O)n(C)c(CO)nc2cc1Cl)c1ccc(C(=O)OC(C)(C)C)cc1
Second: O=C(O)c1ccc(COCc2csc3nc(C(=O)NCCc4ccccc4)[nH]c(=O)c23)cc1
The melting point of the first is lower: 109 to 111 °C for the first, 227 to 229 °C for the second.

Compared with `c1ccc(COc2cccc(Nc3nnc(Cc4ccncc4)c4ccccc34)c2)cc1`, `O=C(Nc1cc2ccccc2cn1)c1nccnc1NCc1ccncc1` is lower in melting point: 142 to 143 °C for the first, 139 °C for the second.

Compared with `C=CCc1c(O)cc(O)c(C(C)=O)c1O`, `COC(=O)c1cc(Cl)cc(I)c1O` is lower in melting point: 158 to 159 °C for the first, 143 to 145 °C for the second.

First: CC1(C)Oc2ccc(S(=O)(=O)c3ccccc3)cc2[C@@H](N2CCCC2=O)[C@@H]1O (relative stereo)
Second: CC(=O)N1CCCc2ccc(C(C)NC(=O)C=Cc3ccccc3)cc21 (centres undefined)
The melting point of the first is higher: 200 to 201 °C for the first, 65 to 68 °C for the second.

Compared with `CCOc1cc(-c2ccc(-c3ccc(N=Nc4ccccn4)c(OCC)c3)o2)ccc1N=Nc1ccccn1`, `Clc1ccccc1C(c1ccc(-c2ccccc2)cc1)n1ccnc1` (centres undefined) is lower in melting point: 205 to 210 °C for the first, 90 °C for the second.

First: Cc1cc(COc2ccc(S(=O)(=O)NC[C@@H](C(=O)NO)N3CCNCC3)cc2)c2ccccc2n1
Second: O=C(Nc1ccc2ccccc2n1)c1ccc(COc2ccc3c(c2)CCC(CCN2CCCCC2)C3)cc1 (centres undefined)
The melting point of the first is higher: 225 °C for the first, 135 to 138 °C for the second.

First: CS(=O)(=O)Nc1cccc2c(O)ccc(N=Nc3cccc(S(=O)(=O)NCCCCCCBr)c3)c12
Second: CCCCCCC(C)Oc1ccc(-c2ccc(O)cc2)cc1F (centres undefined)
The melting point of the first is higher: 163 to 165 °C for the first, 65.2 to 66.7 °C for the second.

First: O=c1occ(-c2ccccc2)n1-c1ccc(F)cc1
Second: CC(=Cc1ccccc1)n1c(=O)[nH]c2ccc(F)cc21
The melting point of the first is lower: 145 to 147 °C for the first, 190 °C for the second.

First: Cc1ccc(CC2CCN(C(=O)C(=O)Nc3ccc4c(c3)CC(=O)N4)CC2)cc1
Second: O=C1CCC(c2ccc(NC(=O)CCN3CCC(c4ccccc4)CC3)cc2)=NN1
The melting point of the first is lower: 235 to 237 °C for the first, 238 to 240 °C for the second.

First: CCCCCCCCCCCCCCc1ccc(OC)cc1
Second: CCCCCCCCCCCCCCCCCCOc1cc(N(CC(=O)O)CC(=O)O)cc([N+](=O)[O-])c1
The melting point of the first is lower: 38 °C for the first, 131 to 134 °C for the second.

First: O=C1CCC(c2ccccc2)(c2ccccc2)C2CN(C(Cc3ccccc3)=NCc3cccc4ccccc34)CC12 (centres undefined)
Second: O=C(c1cc(-c2ccccc2)c(=O)n2c1-c1ccccc1C2)N1CCN(c2ccccc2)CC1
The melting point of the first is lower: 192 °C for the first, 208 to 210 °C for the second.

First: CCn1cc(C(=O)O)c(=O)cc1-c1c(Cl)cccc1Cl
Second: CCc1nn(C(C)C)c2cc(C(=O)Nc3c(Cl)cncc3Cl)ccc12
The melting point of the first is higher: 200 to 201 °C for the first, 145 to 148 °C for the second.

First: CC(=O)Oc1ccc2ccc(=O)oc2c1CC(Br)CBr (centres undefined)
Second: CCCN(C(=O)Oc1ccccc1)C1Cc2ccc(-c3ccc(=O)[nH]n3)cc2C1 (centres undefined)
The melting point of the first is lower: 123 to 124 °C for the first, 140 to 141 °C for the second.

First: COC(=O)c1c(N)cccc1S(=O)(=O)NC(C)(C)C
Second: COC(C)=CC(=O)Nc1cccc(SC)c1
The melting point of the first is higher: 132 to 133 °C for the first, 70 to 71 °C for the second.

First: O=C(O)CCCc1ccc2sc3ccccc3c2c1
Second: O=c1nc(-c2ccc(-c3ccccc3)cc2)sc2ccccc12
The melting point of the first is lower: 127 to 128 °C for the first, 170 to 171 °C for the second.

First: O=C(CCCOc1cccc(CN2CCCCC2)c1)Nc1nc(CCc2ccccc2)n[nH]1
Second: O=C(O)c1c[nH]c(SCc2ccccc2)c1SCc1ccccc1
The melting point of the first is higher: 192 to 193 °C for the first, 160 to 162 °C for the second.

Compared with `CNc1c(N)cnn1CCO`, `O=C(Cn1nnnc1-c1ccsc1)OCCO` is lower in melting point: 138 to 140 °C for the first, 103 to 106 °C for the second.

Compared with `Cc1cc(OCc2ccccc2)c2cc(C(=O)N(C)C)[nH]c2c1`, `CCOC(=O)c1cc(-c2ccc(N)cc2)cnc1C` is lower in melting point: 205 to 207 °C for the first, 137 to 138 °C for the second.

First: Cn1nc(OCCCc2cc(-c3ccc(C(F)(F)F)cc3)no2)cc1C(=O)O
Second: Nc1ccc2c(c1N)CN(Cc1ccc(C(F)(F)F)cc1)CC2
The melting point of the first is higher: 162 to 163 °C for the first, 130 to 135 °C for the second.

Compared with `COC1CCN(S(=O)(=O)c2ccc(S(=O)(=O)Cl)cc2C(F)(F)F)CC1`, `CO/N=C1\CCCC[C@@H]1NC(=O)c1cc(-c2ccc(Cl)cc2)c(O[C@@H](C)C(F)(F)F)cn1` is higher in melting point: 117 to 119 °C for the first, 123 to 125 °C for the second.

`COCCOc1ccc(CN2C(=O)C3(COc4cc5c(cc43)OCCO5)c3ccccc32)cc1` (centres undefined) and `O=C(NCCOc1ccc(-c2noc(=O)[nH]2)cc1)C1Cc2ccccc2N1S(=O)(=O)c1ccc(-c2cccc(C(F)(F)F)c2)cc1` (centres undefined) cannot be ordered by melting point: 124 to 125 °C for the first, 123 to 130 °C for the second.

First: O=C1CCCc2c1c1cc(F)ccc1n2Cc1ccc(F)cc1
Second: CN1CCN(c2cccc3nc4n(c(=O)c23)-c2ccc(F)cc2C4=O)CC1
The melting point of the first is lower: 182 to 183 °C for the first, 232 to 233 °C for the second.

First: Cc1nc(Cl)cc(-c2ccc(F)cc2)n1
Second: CCC(=O)Nc1cc(-c2cccnc2)nc(-c2ccco2)n1
The melting point of the first is lower: 95 to 98 °C for the first, 252 to 253 °C for the second.

First: CCC(C)Cc1c(-c2ccc([N+](=O)[O-])cc2Cl)c(C)nc2ncnn12 (centres undefined)
Second: COc1cc2c(c(Cl)c1Cl)C(=O)C(C)(c1ccc([N+](=O)[O-])cc1)C2 (centres undefined)
The melting point of the first is lower: 158 to 162 °C for the first, 179 to 180 °C for the second.

First: COCCNC(=O)c1cc(C(=O)O)cc([N+](=O)[O-])c1
Second: N#Cc1cc([N+](=O)[O-])ccc1N1CCC(NCCO)CC1
The melting point of the first is higher: 203 to 207 °C for the first, 115 °C for the second.

First: O=C(N1CCOCC1)N1Cc2c(-c3nc4ccccc4o3)ncn2-c2ccccc21
Second: C=C(C(=O)N1CCOCC1)c1cccc(-c2cc3c(cc2C)C(C)(C)CCC3(C)C)c1
The melting point of the first is higher: 288 to 290 °C for the first, 158 to 159 °C for the second.

First: CC(C#Cc1ccc(C=Cc2ccc(F)cc2)s1)N(O)C(N)=O (centres undefined)
Second: O=[N+]([O-])C=Cc1cn(-c2ccccc2)c2ccccc12
The melting point of the first is higher: 177 °C for the first, 154 to 155 °C for the second.

Compared with `CC(C)[C@]1(CCc2ccc(O)cc2)CC(O)=C(Sc2cc(C(C)(C)C)cc3sc(N)nc23)C(=O)O1`, `COc1cc(OC(C)C)cc2oc(Sc3ccc(O)cc3)cc(=O)c12` is higher in melting point: 168 to 179 °C for the first, 263 to 265 °C for the second.

Compared with `CCN(CC)CCCCCCCCNc1nc(N)nc(-c2cc(Cl)ccc2Cl)n1`, `CC(C)Oc1cc(CCC(=O)O)n(Cc2ccc(Cl)cc2Cl)n1` is higher in melting point: 101 to 102 °C for the first, 114 to 115 °C for the second.

First: COC(=O)c1sc2c(c1O)CN(C(=O)OC(C)(C)C)CC2
Second: CC(C)OC(=O)Nc1ccc(Cl)c(C(=O)OC(C)C)c1
The melting point of the first is lower: 84.5 to 86 °C for the first, 108 to 109 °C for the second.

Compared with `CC(C)Nc1cncc(C(=NCCO[N+](=O)[O-])NC#N)c1`, `COc1cc([N+](=O)[O-])c2nccc(C)c2c1Cl` is higher in melting point: 123 °C for the first, 167 to 169 °C for the second.

First: COc1cc(OC)nc(Sc2[nH]nc(C)c2[N+](=O)[O-])n1
Second: O=[N+]([O-])c1cccc(CSc2nc3cnccc3[nH]2)c1
The melting point of the first is lower: 175 to 176 °C for the first, 208 to 210 °C for the second.

Compared with `CC(=O)C(=Cc1ccc(C(F)(F)F)cc1)C(C)=O`, `OC(c1ccc2c(c1)SCCN2)(C(F)(F)F)C(F)(F)F` is higher in melting point: 46 to 48 °C for the first, 99 to 100 °C for the second.

First: CC[C@H]1[C@H](O)CC(=O)N1c1ccc(C#N)c(Cl)c1C
Second: CCC1(c2cn(-c3c(Cl)cc(C(F)(F)F)cc3Cl)nc2C#N)CC1
The melting point of the first is higher: 142 to 146 °C for the first, 118 to 119 °C for the second.

First: Oc1c2c(nn1-c1ncccc1C(F)(F)F)CCc1ccccc1-2
Second: O=C1Cc2ccccc2N1C1=NCCS1
The melting point of the first is higher: 174 to 175 °C for the first, 97 to 99 °C for the second.

First: CCCCNCC1CCn2c(nc3ccccc32)S1 (centres undefined)
Second: CCNc1cc(Oc2ccc(N)cc2)ncn1
The melting point of the first is lower: 122 to 124 °C for the first, 143 to 145 °C for the second.

First: CN(C)N1C(=O)C(=Cc2nc(C(C)(C)C)c(O)c(C(C)(C)C)n2)SC1=S
Second: Cc1cc(C)c(-c2cn(C)c3nc(N)n(C)c(=O)c23)c(C)c1
The melting point of the first is lower: 100 to 105 °C for the first, 229 to 231 °C for the second.

First: OCC1OC(n2c(Br)nc3cc(Cl)c(Cl)cc32)C(O)C1O (centres undefined)
Second: CCOC(=O)c1cn2c3c(cc(Br)cc3c1=O)CC2(C)C
The melting point of the first is lower: 169 °C for the first, 227 to 228 °C for the second.

First: CC(C)c1cc(C(C)C)c(CC(=O)c2ccc(-c3ccccc3)c(OS(N)(=O)=O)c2-c2ccccc2)c(C(C)C)c1
Second: Fc1nccn1C(c1ccccc1)(c1ccccc1)c1ccccc1
The melting point of the first is lower: 129 to 132 °C for the first, 182 to 185 °C for the second.

First: COc1cc(OC)c(C2=NC(C)(C)CO2)cc1OC
Second: COc1ccc2c3c1OC1C(=O)C(C)CC4(OC)C(C2)N(C)CCC314 (centres undefined)
The melting point of the first is lower: 84 to 86 °C for the first, 215 to 221 °C for the second.

Compound `Cc1ccc(N=C2NCCN2)cc1NS(C)(=O)=O` has a melting point of 124 to 126 °C.
